Assay results taken from patent US4160829A, “Antibacterial 1,2,4-oxadiazolylacetamido cephalosporins” (Gist-Brocades N.V., priority 1972, dated 1979).
Converted amounts (≈) assume the structure as drawn. Read-outs that look alike come from different tables or passages of the source.

Tests used:
Kleb.pneum. A 809 = assay: agar serial dilution test; type: cell-based, Klebsiella pneumoniae; settings: Klebsiella pneumoniae, read-out: minimal inhibitory concentration (MIC)
Staph.aureus A 355 [1] = assay: agar serial dilution test; settings: Staphylococcus aureus, A355, 24 h
Prot.mirab. A 1200 = assay: agar serial dilution test; type: cell-based, Proteus mirabilis; settings: Proteus mirabilis, 24 h, agar serial dilution, 24 hours, 37° C.; read-out: minimal inhibitory concentration (MIC)
Prot.mirab. H 3 = assay: agar serial dilution test; type: cell-based, Proteus mirabilis; settings: Proteus mirabilis
Staph.aureus A 321 = assay: agar serial dilution test; type: cell-based, Staphylococcus aureus; settings: Staphylococcus aureus, read-out: minimal inhibitory concentration (MIC)
Pseud.aerug. H 10 = assay: agar serial dilution test; type: cell-based; settings: read-out: minimal inhibitory concentration (MIC)
Pseud.aerug. 2396 = assay: agar serial dilution test; type: cell-based; settings: read-out: minimal inhibitory concentration (MIC)
Esch.coli U 20 = assay: agar serial dilution test; type: cell-based, Escherichia coli; settings: Escherichia coli
[2] = test system: Pseud.aerug. Wyeth A 1058; assay: agar serial dilution test; type: cell-based; settings: read-out: minimal inhibitory concentration (MIC)
Staph.aureus A 355 [3] = assay: micro serial dilution test; type: cell-based, Staphylococcus aureus; settings: Staphylococcus aureus, A355; micro serial dilution (in brackets), about 18 hours, 30° C. or 37° C.; penicillinase-producing strain; read-out: minimal inhibitory concentration (MIC)
Excerpt: Two drops of a stock solution of the test compound (antibiotic) in a known concentration were brought into the first hole of a test plate with 9 numbered holes with a sterile Pasteur pipette. After rinsing this pipette three times with a physiological NaCl-solution, two drops of a stock solution of the test organism in a culture medium were brought in all the holes except for hole 8. In the first hole, the solution of the tested compound had been half diluted, then by stirring the liquid in the first hole and adding two drops of this mixture to the second hole and so on until hole 8, dilutions of the test compound solution were obtained in geometrical progression. The hole 9 contained no antibiotic and served for checking the growth of the testogranism in a blank medium. The test plate was incubated at 30° C. or 37° C. for about 18 hours.
^1 Penicillinase-producing strain

Salm.dubl. P 43 = assay: agar serial dilution test; type: cell-based, Salmonella dublin; settings: Salmonella enterica, read-out: minimal inhibitory concentration (MIC)
Bruc.melit. A 488 = assay: microbe, parasite or virus in culture; type: cell-based; settings: Brucella melitensis, 24 h, read-out: minimal inhibitory concentration (MIC)
Prot.morg. 2241 = assay: agar serial dilution test; type: cell-based; settings: read-out: minimal inhibitory concentration (MIC)
Staph.aureus A 2001 [4] = assay: micro serial dilution test; type: cell-based, Staphylococcus aureus; settings: Staphylococcus aureus, micro serial dilution (in brackets), about 18 hours, 30° C. or 37° C., read-out: minimal inhibitory concentration (MIC)
Staph.aureus A 2000 [5] = assay: micro serial dilution test; type: cell-based, Staphylococcus aureus; settings: Staphylococcus aureus, A2000, 18 h, micro serial dilution (in brackets), about 18 hours, 30° C. or 37° C.; read-out: minimal inhibitory concentration (MIC)
Past.multo. A 723 = assay: agar serial dilution test; type: cell-based, Pasteurella multocida; settings: Pasteurella multocida, read-out: minimal inhibitory concentration (MIC)
Shig.equir. T 3 = assay: agar serial dilution test; type: cell-based; settings: 37° C., read-out: minimal inhibitory concentration (MIC)
Bac.Subt.ATCC 6633 = assay: agar serial dilution test; type: cell-based, Bacillus subtilis; settings: Bacillus subtilis, read-out: minimal inhibitory concentration (MIC)
Staph.aureus A 2001 [6] = assay: agar serial dilution test; type: cell-based, Staphylococcus aureus; settings: Staphylococcus aureus, A2001, 24 h, agar serial dilution, 24 hours, 37° C.; read-out: minimal inhibitory concentration (MIC)
Haem.infl. A 1030 = assay: micro serial dilution test; type: cell-based; settings: read-out: minimal inhibitory concentration (MIC)
Prot.mirab. L 93 = assay: agar serial dilution test; type: cell-based, Proteus mirabilis; settings: Proteus mirabilis
Staph.aureus A 2000 [7] = assay: agar serial dilution test; type: cell-based, Staphylococcus aureus; settings: Staphylococcus aureus, read-out: minimal inhibitory concentration (MIC)
Strep. faec. L 80 = assay: agar serial dilution test; type: cell-based, Streptococcus faecalis; settings: Enterococcus faecalis, read-out: minimal inhibitory concentration (MIC)
Salm.typh. R 127 = assay: agar serial dilution test; type: cell-based; settings: 24 h, 37° C., read-out: minimal inhibitory concentration (MIC)
Prot.rettg. A 821 = assay: agar serial dilution test; type: cell-based, Proteus rettgeri; settings: Providencia rettgeri, read-out: minimal inhibitory concentration (MIC)
Dipl.pneum. L 54 = assay: agar serial dilution test; type: cell-based, Diplococcus pneumoniae; settings: Streptococcus pneumoniae, read-out: minimal inhibitory concentration (MIC)
Strep.haem. A 266 = assay: agar serial dilution test; type: cell-based, Streptococcus haemolyticus; settings: Streptococcus, read-out: minimal inhibitory concentration (MIC)
[8] = agar serial dilution, 24 hours, 37° C.
[9] = read-out: minimal inhibitory concentration (MIC), agar serial dilution, 24 hours, 37° C., penicillinase-producing strain
[10] = agar serial dilution, 24 hours, 37° C., read-out: minimal inhibitory concentration (MIC)
[11] = A321, 24 h, agar serial dilution, 24 hours, 37° C.
[12] = U20, agar serial dilution, 24 hours, 37° C., read-out: minimal inhibitory concentration (MIC)
[13] = 24 h, agar serial dilution, 24 hours, 37° C.
[14] = ATCC6633, 24 h, agar serial dilution, 24 hours, 37° C.
[15] = 18 h, micro serial dilution (in brackets), about 18 hours, 30° C. or 37° C.
[16] = 24 h, read-out: minimal inhibitory concentration (MIC), agar serial dilution, 24 hours, 37° C.
[17] = A2000, 24 h, agar serial dilution, 24 hours, 37° C.
[18] = read-out: minimal inhibitory concentration (MIC)
[19] = 24 h, agar serial dilution, 24 hours, 37° C., read-out: minimal inhibitory concentration (MIC)

SMILES	MIC (Kleb.pneum. A 809; [8]) [µg/mL]	MIC (Staph.aureus A 355 [1]; [9]) [µg/mL]	MIC (Prot.mirab. A 1200) [µg/mL]	MIC (Prot.mirab. H 3; [10]) [µg/mL]	MIC (Staph.aureus A 321; [11]) [µg/mL]	MIC (Pseud.aerug. H 10; [8]) [µg/mL]	MIC (Pseud.aerug. 2396; [8]) [µg/mL]	MIC (Esch.coli U 20; [12]) [µg/mL]	MIC [2, 8] [µg/mL]	MIC (Staph.aureus A 355 [3]) [µg/mL]	MIC (Salm.dubl. P 43; [8]) [µg/mL]	MIC (Bruc.melit. A 488) [µg/mL]	MIC (Prot.morg. 2241; [13]) [µg/mL]	MIC (Past.multo. A 723; [8]) [µg/mL]	MIC (Shig.equir. T 3; 24 h) [µg/mL]	MIC (Bac.Subt.ATCC 6633; [14]) [µg/mL]	MIC (Haem.infl. A 1030; [15]) [µg/mL]	MIC (Staph.aureus A 2000 [7]; [17]) [µg/mL]	MIC (Strep. faec. L 80; [8]) [µg/mL]	MIC (Dipl.pneum. L 54; [8]) [µg/mL]	also measured
Cc1noc(C(C(=O)N[C@@H]2C(=O)N3[C@@H]2SC(C)(C)[C@@H]3C(=O)O)c2ccccc2)n1 (mixture of isomers) [Example 6, sodium DL-6-{[α-phenyl-3-methyl-1,2,4-oxadiazol-5-yl-]-acetamido}-penicillanate]	100	25	100	100	0.25	> 100	> 100	100	> 100	125	100	1	> 100	1	12.5	0.03	1.2	1.5	1	0.06	MIC (Staph.aureus A 2001 [4]; A2001, 18 h): 2.5 µg/mL; MIC (Staph.aureus A 2000 [5]): 23 µg/mL; MIC (Staph.aureus A 2001 [6]): 1 µg/mL; MIC (Prot.mirab. L 93; [16]): 12.5 µg/mL; MIC (Salm.typh. R 127): > 100 µg/mL; MIC (Prot.rettg. A 821; [13]): 3 µg/mL
CC(=O)OCC1=C(C(=O)O)N2C(=O)[C@@H](NC(=O)Cc3ccccc3)[C@H]2SC1 [Cephalosporin G, reference compound]	1 (≈ 2.56 µM)					> 100	> 100		> 100	1.8 (≈ 4.61 µM)	6 (≈ 15.4 µM)	2 (≈ 5.12 µM)		1 (≈ 2.56 µM)	25 (≈ 64 µM)				25 (≈ 64 µM)	0.06 (≈ 0.154 µM)	MIC (Staph.aureus A 355 [1]; [18]): 1.5 µg/mL (≈ 3.84 µM); MIC (Prot.mirab. H 3; [19]): 25 µg/mL (≈ 64 µM); MIC (Staph.aureus A 321; A321, agar serial dilution, 24 hours, 37° C.): 1.5 µg/mL (≈ 3.84 µM); MIC (Esch.coli U 20; U20, 24 h, agar serial dilution, 24 hours, 37° C., read-out: minimal inhibitory concentration (MIC)): 50 µg/mL (≈ 128 µM); MIC (Strep.haem. A 266; [8]): 0.03 µg/mL (≈ 0.0768 µM); MIC (Prot.morg. 2241; [8]): > 100 µg/mL; MIC (Staph.aureus A 2001 [4]; A2001): 0.9 µg/mL (≈ 2.31 µM); MIC (Bac.Subt.ATCC 6633; ATCC6633, agar serial dilution, 24 hours, 37° C.): 0.09 µg/mL (≈ 0.231 µM); MIC (Haem.infl. A 1030; micro serial dilution (in brackets), about 18 hours, 30° C. or 37° C.): 125 µg/mL (≈ 320 µM); MIC (Prot.mirab. L 93; [19]): 2 µg/mL (≈ 5.12 µM); MIC (Staph.aureus A 2000 [7]; A2000, agar serial dilution, 24 hours, 37° C.): 1.5 µg/mL (≈ 3.84 µM); MIC (Prot.rettg. A 821; [8]): 25 µg/mL (≈ 64 µM)
CC(=O)OCC1=C(C(=O)O)N2C(=O)[C@@H](NC(=O)Cc3nc(-c4c(C)cc(C)cc4C)no3)[C@H]2SC1 [Example 9, 7-{[3-(2,4,6-trimethylphenyl)-1,2,4-oxadiazol-5-yl]-acetamido}-cephalosporanic acid]	50 (≈ 99.9 µM)	1 (≈ 2 µM)	> 100	> 100	0.12 (≈ 0.24 µM)	> 100	> 100	> 100	> 100	0.15 (≈ 0.3 µM)	> 100	100 (≈ 200 µM)	> 100	50 (≈ 99.9 µM)	> 100	0.06 (≈ 0.12 µM)	125 (≈ 250 µM)	1 (≈ 2 µM)	6 (≈ 12 µM)	0.25 (≈ 0.499 µM)	MIC (Strep.haem. A 266; [8]): 0.03 µg/mL (≈ 0.0599 µM); MIC (Staph.aureus A 2001 [4]; A2001, 18 h): 0.11 µg/mL (≈ 0.22 µM); MIC (Prot.mirab. L 93; [10]): > 100 µg/mL; MIC (Prot.rettg. A 821; [13]): > 100 µg/mL
Cc1nc(CC(=O)N[C@@H]2C(=O)N3[C@@H]2SC(C)(C)[C@@H]3C(=O)O)no1 [Example 13, Sodium 6-[(5-methyl-1,2,4-oxadiazol-3-yl)-acetamido]-penicillanate]	> 100	10	25	100	0.12	> 100		50	> 100		3	3	100	1	3	0.03	125	1.5	6	1	MIC (Strep.haem. A 266; [8]): 0.03 µg/mL; MIC (Staph.aureus A 2001 [6]): 1.5 µg/mL; MIC (Prot.mirab. L 93; [10]): 3 µg/mL; MIC (Salm.typh. R 127): 25 µg/mL; MIC (Prot.rettg. A 821; [13]): 6 µg/mL
CC1=C(C(=O)O)N2C(=O)[C@@H](NC(=O)Cc3ccccc3)[C@H]2SC1 [benzyldesacetoxy ceph., reference compound]												100 (≈ 301 µM)									MIC (Kleb.pneum. A 809; 24 h): 100 µg/mL (≈ 301 µM); MIC (Staph.aureus A 355 [1]; [18]): 25 µg/mL (≈ 75.2 µM); MIC (Prot.mirab. H 3; [16]): > 100 µg/mL; MIC (Staph.aureus A 321; A321, 24 h): 1 µg/mL (≈ 3.01 µM); MIC (Pseud.aerug. H 10; 24 h): > 100 µg/mL; MIC (Pseud.aerug. 2396; 24 h): > 100 µg/mL; MIC (Esch.coli U 20; U20, 24 h, read-out: minimal inhibitory concentration (MIC), agar serial dilution, 24 hours, 37° C.): > 100 µg/mL; MIC ([2]; 24 h): > 100 µg/mL; MIC (Salm.dubl. P 43; 24 h): > 100 µg/mL; MIC (Strep.haem. A 266; 24 h): 1 µg/mL (≈ 3.01 µM); MIC (Prot.morg. 2241; 24 h): > 100 µg/mL; MIC (Past.multo. A 723; 24 h): 25 µg/mL (≈ 75.2 µM); MIC (Shig.equir. T 3; 24 hours): 100 µg/mL (≈ 301 µM); MIC (Bac.Subt.ATCC 6633; ATCC6633, 24 h): 0.5 µg/mL (≈ 1.5 µM); MIC (Haem.infl. A 1030; 18 h): > 125 µg/mL; MIC (Prot.mirab. L 93; [16]): 50 µg/mL (≈ 150 µM); MIC (Staph.aureus A 2000 [7]; A2000, 24 h): 12.5 µg/mL (≈ 37.6 µM); MIC (Strep. faec. L 80; 24 h): > 100 µg/mL; MIC (Prot.rettg. A 821; 24 h): > 100 µg/mL; MIC (Dipl.pneum. L 54; 24 h): 3 µg/mL (≈ 9.03 µM)
